Experiments:
Type in all cases: in vivo
[1] = tested on: redroot pigweed (Amaranthus retroflexus, AMARE); assay: Pre-emerge test, greenhouse herbicide activity screening; conditions: pre-emerge, 14 days after application, scale 0-100
Method in brief: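 Compounds in acetone were track-sprayed at 187 l/ha, 15–1000 g ai/ha, onto sandy loam pots. Pre-emerge seeds were sown one day before spraying, with surface watering afterwards. Post-emerge plants were at the 2–3 leaf stage and sprayed with 0.25% v/v non-ionic surfactant. Injury was rated 0–100 at 14 days.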

[2] = tested on: barnyardgrass (Echinochloa crus-galli, ECHCG); assay: as above; conditions: pre-emerge, 14 days after application, scale 0-100
Method in brief: (§1)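 Plants grown in 10 cm pots of sandy loam mix received acetone-dissolved compounds through a moving flat-fan nozzle. Doses ranged from 15 to 1000 g ai/ha. Pre-emerge pots were seeded one day earlier, post-emerge pots 8–21 days earlier. Fourteen days on, each pot was graded 0–100 for damage.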

[3] = tested on: green foxtail (Setaria viridis, SETVI); assay: as above; conditions: pre-emerge, 14 days after application, scale 0-100
Method in brief: as §1

[4] = tested on: ivyleaf morningglory (Ipomoea hederacea, IPOHE); assay: as above; conditions: pre-emerge, 14 days after application, scale 0-100
Method in brief: as §1

[5] = tested on: johnsongrass (Sorghum halepense, SORHA); assay: as above; conditions: pre-emerge, 14 days after application, scale 0-100
Method in brief: as §1

[6] = tested on: lambsquarters (Chenopodium album, CHEAL); assay: as above; conditions: pre-emerge, 14 days after application, scale 0-100
Method in brief: as §1

[7] = tested on: large crabgrass (Digitaria sanguinalis, DIGSA); assay: as above; conditions: pre-emerge, 14 days after application, scale 0-100
Method in brief: as §1

[8] = tested on: sicklepod (Cassia obtusifolia, CASOB); assay: as above; conditions: pre-emerge, 14 days after application, scale 0-100
Method in brief: as §1

[9] = tested on: velvetleaf (Abutilon theophrasti, ABUTH); assay: as above; conditions: pre-emerge, 14 days after application, scale 0-100
Method in brief: as §1

[10] = tested on: field corn (Zea mays L., var. Dekalb 535, CORN); assay: Pre-emerge test, crop safety; conditions: pre-emerge, 14 days after application, scale 0-100
Method in brief: as §1

[11] = tested on: upland rice (Oryza sp., var. Tebonnet, RICE); assay: Pre-emerge test, crop safety; conditions: pre-emerge, 14 days after application, scale 0-100
Method in brief: as §1

[12] = tested on: barnyardgrass (Echinochloa crus-galli, ECHCG); assay: Post-emerge test, greenhouse herbicide activity screening; conditions: post-emerge, 14 days after application, rating scale 0-100
Method in brief: (§2)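 Compounds in acetone were track-sprayed at 15-1000 g ai/ha (187 l/ha) on sandy loam pots: pre-emerge one day after seeding, post-emerge at 2-3 leaf stage with 0.25% v/v non-ionic surfactant. Phytotoxicity was rated 14 days later on a 0 (no damage) to 100 (complete death) scale.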

[13] = tested on: common ragweed (Ambrosia artemisizfolia L., AMBEL); assay: as above; conditions: post-emerge, 14 days after application, rating scale 0-100
Method in brief: as §2

[14] = tested on: green foxtail (Setaria viridis, SETVI); assay: as above; conditions: post-emerge, 14 days after application, rating scale 0-100
Method in brief: as §2

[15] = tested on: ivyleaf morningglory (Ipomoea hederacea, IPOHE); assay: as above; conditions: post-emerge, 14 days after application, rating scale 0-100
Method in brief: as §2

[16] = tested on: johnsongrass (Sorghum halepense, SORHA); assay: as above; conditions: post-emerge, 14 days after application, rating scale 0-100
Method in brief: as §2

[17] = tested on: lambsquarters (Chenopodium album, CHEAL); assay: as above; conditions: post-emerge, 14 days after application, rating scale 0-100
Method in brief: as §2

[18] = tested on: large crabgrass (Digitaria sanguinalis, DIGSA); assay: as above; conditions: post-emerge, 14 days after application, rating scale 0-100
Method in brief: as §2

[19] = tested on: redroot pigweed (Amaranthus retroflexus, AMARE); assay: as above; conditions: post-emerge, 14 days after application, rating scale 0-100
Method in brief: as §2

[20] = tested on: sicklepod (Cassia obtusifolia, CASOB); assay: as above; conditions: post-emerge, 14 days after application, rating scale 0-100
Method in brief: as §2

[21] = tested on: velvetleaf (Abutilon theophrasti, ABUTH); assay: as above; conditions: post-emerge, 14 days after application, rating scale 0-100
Method in brief: as §2

[22] = tested on: field corn (Zea mays L., var. Dekalb 535, CORN); assay: Post-emerge test, crop safety; conditions: post-emerge, 14 days after application, rating scale 0-100
Method in brief: (§3)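 Each test used a mechanized track sprayer delivering 187 l/ha of acetone solution at 15–1000 g ai/ha. Post-emerge foliage at 2–3 leaves was treated with added 0.25% v/v non-ionic surfactant and bottom-watered only. Injury was assessed on day 14, where 100 means total kill.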

[23] = tested on: upland rice (Oryza sp., var. Tebonnet, RICE); assay: Post-emerge test, crop safety; conditions: post-emerge, 14 days after application, rating scale 0-100
Method in brief: as §3

## COc1c(Cl)cc(F)c(-n2c(=O)cc(C(F)(F)F)n(C)c2=O)c1NC(=O)CSC(C)C [2-173]
[1]; 63 g ai/ha
  phytotoxicity rating AMARE: 30
[1]; 250 g ai/ha
  phytotoxicity rating AMARE: 100
[2]; 63 g ai/ha
  phytotoxicity rating ECHCG: 0
[2]; 250 g ai/ha
  phytotoxicity rating ECHCG: 20
[3]; 63 g ai/ha
  phytotoxicity rating SETVI: 40
[3]; 250 g ai/ha
  phytotoxicity rating SETVI: 80
[4]; 63 g ai/ha
  phytotoxicity rating IPOHE: 0
[4]; 250 g ai/ha
  phytotoxicity rating IPOHE: 40
[5]; 63 g ai/ha
  phytotoxicity rating SORHA: 0
[5]; 250 g ai/ha
  phytotoxicity rating SORHA: 10
[6]; 63 g ai/ha
  phytotoxicity rating CHEAL: 90
[6]; 250 g ai/ha
  phytotoxicity rating CHEAL: 100
[7]; 63 g ai/ha
  phytotoxicity rating DIGSA: 30
[7]; 250 g ai/ha
  phytotoxicity rating DIGSA: 80
[8]; 63 g ai/ha
  phytotoxicity rating CASOB: 30
[8]; 250 g ai/ha
  phytotoxicity rating CASOB: 70
[9]; 63 g ai/ha
  phytotoxicity rating ABUTH: 95
[9]; 250 g ai/ha
  phytotoxicity rating ABUTH: 100
[10]; 63 g ai/ha
  phytotoxicity rating CORN (crop damage): 0
[10]; 250 g ai/ha
  phytotoxicity rating CORN (crop damage): 20
[11]; 63 g ai/ha
  phytotoxicity rating RICE (crop damage): 0
[11]; 250 g ai/ha
  phytotoxicity rating RICE (crop damage): 50
[12]; 63 g ai/ha
  ECHCG phytotoxicity rating: 0
[12]; 250 g ai/ha
  ECHCG phytotoxicity rating: 0
[13]; 63 g ai/ha
  AMBEL phytotoxicity rating: 30
[13]; 250 g ai/ha
  AMBEL phytotoxicity rating: 50
[14]; 63 g ai/ha
  SETVI phytotoxicity rating: 0
[14]; 250 g ai/ha
  SETVI phytotoxicity rating: 0
[15]; 63 g ai/ha
  IPOHE phytotoxicity rating: 100
[15]; 250 g ai/ha
  IPOHE phytotoxicity rating: 80
[16]; 63 g ai/ha
  SORHA phytotoxicity rating: 0
[16]; 250 g ai/ha
  SORHA phytotoxicity rating: 0
[17]; 63 g ai/ha
  CHEAL phytotoxicity rating: 40
[17]; 250 g ai/ha
  CHEAL phytotoxicity rating: 65
[18]; 63 g ai/ha
  DIGSA phytotoxicity rating: 0
[18]; 250 g ai/ha
  DIGSA phytotoxicity rating: 0
[19]; 63 g ai/ha
  AMARE phytotoxicity rating: 50
[19]; 250 g ai/ha
  AMARE phytotoxicity rating: 50
[20]; 63 g ai/ha
  CASOB phytotoxicity rating: 50
[20]; 250 g ai/ha
  CASOB phytotoxicity rating: 70
[21]; 63 g ai/ha
  ABUTH phytotoxicity rating: 60
[21]; 250 g ai/ha
  ABUTH phytotoxicity rating: 100
[22]; 63 g ai/ha
  CORN phytotoxicity rating (crop damage): 0
[22]; 250 g ai/ha
  CORN phytotoxicity rating (crop damage): 25
[23]; 63 g ai/ha
  RICE phytotoxicity rating (crop damage): 0
[23]; 250 g ai/ha
  RICE phytotoxicity rating (crop damage): 10
